Assay results reported in ChEMBL document CHEMBL3887005, “N-cyclopropyl-N-piperidinyl-amides, pharmaceutical compositions containing them, and uses thereof” (2016).

Biological target: T1, Glucose-dependent insulinotropic receptor (Homo sapiens, UniProt Q8TDV5)
T1 sequence (Q8TDV5 whole entry): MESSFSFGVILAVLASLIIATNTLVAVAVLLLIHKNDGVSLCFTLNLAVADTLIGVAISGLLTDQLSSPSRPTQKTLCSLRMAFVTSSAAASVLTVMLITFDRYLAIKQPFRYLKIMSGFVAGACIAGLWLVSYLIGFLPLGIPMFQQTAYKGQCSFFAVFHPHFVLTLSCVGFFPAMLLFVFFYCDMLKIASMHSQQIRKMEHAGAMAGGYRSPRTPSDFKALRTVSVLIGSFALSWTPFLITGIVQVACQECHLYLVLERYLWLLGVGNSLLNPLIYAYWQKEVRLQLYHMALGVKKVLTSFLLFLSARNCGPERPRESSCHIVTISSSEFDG
Assay: AlphaScreen cAMP Assay: MIN6 cells [Miyazaki J et al. Endocrinology. 1990 July; 127(1):126-32] are stably transfected with an expression vector for human GPR119 cDNA (Acc. No. NP_848566). Min-6/hGPR119 cells are cultured in DMEM, 10% FBS, 50 uM β-mercaptoethanol, 0.3 mg/mL Geniticin, 2 mM GlutaMAX at 37° C. 5% CO2. For the assay, the cells are seeded in Optiplates (white, 384-well, 160W-barcoded, TC, sterile with lid, Cat. No. #6007688 (Perkin Elmer); 10000 cells/well; 50 ul). The plates covered with lids are then incubated for 24 hours at 37° C./5% CO2. After the medium is aspirated from the wells completely, 10 ul of the test compound are added, the compounds are diluted using stimulating buffer (140 mM NaCl, 3.6 mM KCl, 0.5 mM NaH2PO4, 0.5 mM MgSO4, 1.5 mM CaCl2, 10 mM Hepes, 5 mM NaHCO3; pH 7.4. 0.5 mM IBMX and 0.1% BSA, the final DMSO concentration is 1%). After 45 minutes incubation at room temperature (approx. 20° C.), the cAMP concentrations are determined using the AlphaScreen cAMP Assay Kit (Cat. No. #6760625R from PerkinElmer). […]
Format: functional, cell-based

Row | SMILES | EC50 [nM]
1 | CC(C)(C)OC(=O)N1CCC(N(C(=O)c2ccc(-c3ccc(CS(C)(=O)=O)cc3)cc2)C2CC2)CC1 | 57
2 | O=C(OC1CCCCC1)N1CCC(N(C(=O)c2ccc(-c3cnco3)cc2)C2CC2)CC1 | 59
